Results from US8192962B2, “Processes for detecting toxic substances” (Daikin Industries, Ltd., priority 2001, dated 2012).

Tested on: Energy system protein genes
Test: DNA chip mRNA expression in yeast, energy system protein genes (Table 4)
Format: cell-based, Saccharomyces cerevisiae S288C
Outline: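 Measured as treated-to-untreated fluorescence ratio on a full-genome yeast DNA chip. Cells (S288C, YPD, 25° C.) were exposed in log phase for two hours to one chemical, dosed to curb growth without killing.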

## S=C([S-])NCCNC(=S)[S-].[Zn+2] [(11), zinc N,N′-ethylenebis(dithiocarbamate)]
Yeast gene YAL060W
  The level of expressed mRNA in the presence of chemical substance/The level of expressed mRNA in the absence of chemical substance: 2.4
Yeast gene YBL058W, cells incubated two hours with the chemical substance
  The level of expressed mRNA in the presence of chemical substance/The level of expressed mRNA in the absence of chemical substance: 1.3
Yeast gene YBL099W, cells incubated two hours with the chemical substance
  The level of expressed mRNA in the presence of chemical substance/The level of expressed mRNA in the absence of chemical substance: 2.1
Yeast gene YBR001C, cells incubated two hours with the chemical substance
  The level of expressed mRNA in the presence of chemical substance/The level of expressed mRNA in the absence of chemical substance: 1.0
Yeast gene YBR185C, cells incubated two hours with the chemical substance
  The level of expressed mRNA in the presence of chemical substance/The level of expressed mRNA in the absence of chemical substance: 1.2
Yeast gene YBR221C, cells incubated two hours with the chemical substance
  The level of expressed mRNA in the presence of chemical substance/The level of expressed mRNA in the absence of chemical substance: 1.2
Yeast gene YCL040W
  The level of expressed mRNA in the presence of chemical substance/The level of expressed mRNA in the absence of chemical substance: 8.2
Yeast gene YCR012W
  The level of expressed mRNA in the presence of chemical substance/The level of expressed mRNA in the absence of chemical substance: 1.8
Yeast gene YCR046C, cells incubated two hours with the chemical substance
  The level of expressed mRNA in the presence of chemical substance/The level of expressed mRNA in the absence of chemical substance: 1.5
Yeast gene YCR105W, cells incubated two hours with the chemical substance
  The level of expressed mRNA in the presence of chemical substance/The level of expressed mRNA in the absence of chemical substance: 2.3
Yeast gene YDL021W
  The level of expressed mRNA in the presence of chemical substance/The level of expressed mRNA in the absence of chemical substance: 4.7
Yeast gene YDL067C, cells incubated two hours with the chemical substance
  The level of expressed mRNA in the presence of chemical substance/The level of expressed mRNA in the absence of chemical substance: 1.4
Yeast gene YDL078C, cells incubated two hours with the chemical substance
  The level of expressed mRNA in the presence of chemical substance/The level of expressed mRNA in the absence of chemical substance: 1.7
Yeast gene YDL107W, cells incubated two hours with the chemical substance
  The level of expressed mRNA in the presence of chemical substance/The level of expressed mRNA in the absence of chemical substance: 1.0
Yeast gene YDL174C
  The level of expressed mRNA in the presence of chemical substance/The level of expressed mRNA in the absence of chemical substance: 0.9
Yeast gene YDL181W, cells incubated two hours with the chemical substance
  The level of expressed mRNA in the presence of chemical substance/The level of expressed mRNA in the absence of chemical substance: 0.8
Yeast gene YDR001C
  The level of expressed mRNA in the presence of chemical substance/The level of expressed mRNA in the absence of chemical substance: 0.7
Yeast gene YDR050C, cells incubated two hours with the chemical substance
  The level of expressed mRNA in the presence of chemical substance/The level of expressed mRNA in the absence of chemical substance: 2.0
Yeast gene YDR079W, cells incubated two hours with the chemical substance
  The level of expressed mRNA in the presence of chemical substance/The level of expressed mRNA in the absence of chemical substance: 1.3
Yeast gene YDR178W, cells incubated two hours with the chemical substance
  The level of expressed mRNA in the presence of chemical substance/The level of expressed mRNA in the absence of chemical substance: 2.0
Yeast gene YDR231C
  The level of expressed mRNA in the presence of chemical substance/The level of expressed mRNA in the absence of chemical substance: 1.3
Yeast gene YDR298C, cells incubated two hours with the chemical substance
  The level of expressed mRNA in the presence of chemical substance/The level of expressed mRNA in the absence of chemical substance: 1.2
Yeast gene YDR377W, cells incubated two hours with the chemical substance
  The level of expressed mRNA in the presence of chemical substance/The level of expressed mRNA in the absence of chemical substance: 1.4
Yeast gene YDR529C, cells incubated two hours with the chemical substance
  The level of expressed mRNA in the presence of chemical substance/The level of expressed mRNA in the absence of chemical substance: 0.8
Yeast gene YEL024W, cells incubated two hours with the chemical substance
  The level of expressed mRNA in the presence of chemical substance/The level of expressed mRNA in the absence of chemical substance: 0.9
Yeast gene YEL039C, cells incubated two hours with the chemical substance
  The level of expressed mRNA in the presence of chemical substance/The level of expressed mRNA in the absence of chemical substance: 1.7
Yeast gene YER178W
  The level of expressed mRNA in the presence of chemical substance/The level of expressed mRNA in the absence of chemical substance: 2.5
Yeast gene YFL057C
  The level of expressed mRNA in the presence of chemical substance/The level of expressed mRNA in the absence of chemical substance: 27.7
Yeast gene YFR053C
  The level of expressed mRNA in the presence of chemical substance/The level of expressed mRNA in the absence of chemical substance: 1.5
Yeast gene YGL018C, cells incubated two hours with the chemical substance
  The level of expressed mRNA in the presence of chemical substance/The level of expressed mRNA in the absence of chemical substance: 1.1
Yeast gene YGL062W
  The level of expressed mRNA in the presence of chemical substance/The level of expressed mRNA in the absence of chemical substance: 0.7
Yeast gene YGL187C, cells incubated two hours with the chemical substance
  The level of expressed mRNA in the presence of chemical substance/The level of expressed mRNA in the absence of chemical substance: 0.7
Yeast gene YGL191W, cells incubated two hours with the chemical substance
  The level of expressed mRNA in the presence of chemical substance/The level of expressed mRNA in the absence of chemical substance: 1.6
Yeast gene YGL205W, cells incubated two hours with the chemical substance
  The level of expressed mRNA in the presence of chemical substance/The level of expressed mRNA in the absence of chemical substance: 0.4
Yeast gene YGL256W, cells incubated two hours with the chemical substance
  The level of expressed mRNA in the presence of chemical substance/The level of expressed mRNA in the absence of chemical substance: 1.0
Yeast gene YGR008C
  The level of expressed mRNA in the presence of chemical substance/The level of expressed mRNA in the absence of chemical substance: 2.6
Yeast gene YGR043C
  The level of expressed mRNA in the presence of chemical substance/The level of expressed mRNA in the absence of chemical substance: 3.6
Yeast gene YGR062C, cells incubated two hours with the chemical substance, 25° C., YPD medium
  The level of expressed mRNA in the presence of chemical substance/The level of expressed mRNA in the absence of chemical substance: 1.6
Yeast gene YGR087C, cells incubated two hours with the chemical substance
  The level of expressed mRNA in the presence of chemical substance/The level of expressed mRNA in the absence of chemical substance: 0.8
Yeast gene YGR174C, cells incubated two hours with the chemical substance
  The level of expressed mRNA in the presence of chemical substance/The level of expressed mRNA in the absence of chemical substance: 1.3
Yeast gene YGR192C
  The level of expressed mRNA in the presence of chemical substance/The level of expressed mRNA in the absence of chemical substance: 2.3
Yeast gene YGR244C
  The level of expressed mRNA in the presence of chemical substance/The level of expressed mRNA in the absence of chemical substance: 1.8
Yeast gene YGR254W
  The level of expressed mRNA in the presence of chemical substance/The level of expressed mRNA in the absence of chemical substance: 1.3
Yeast gene YGR256W
  The level of expressed mRNA in the presence of chemical substance/The level of expressed mRNA in the absence of chemical substance: 2.7
Yeast gene YHL008C
  The level of expressed mRNA in the presence of chemical substance/The level of expressed mRNA in the absence of chemical substance: 1.4
Yeast gene YHR174W
  The level of expressed mRNA in the presence of chemical substance/The level of expressed mRNA in the absence of chemical substance: 1.4
Yeast gene YHR179W
  The level of expressed mRNA in the presence of chemical substance/The level of expressed mRNA in the absence of chemical substance: 2.0
Yeast gene YIL045W
  The level of expressed mRNA in the presence of chemical substance/The level of expressed mRNA in the absence of chemical substance: 1.2
Yeast gene YIL160C
  The level of expressed mRNA in the presence of chemical substance/The level of expressed mRNA in the absence of chemical substance: 2.4
Yeast gene YIR031C, cells incubated two hours with the chemical substance
  The level of expressed mRNA in the presence of chemical substance/The level of expressed mRNA in the absence of chemical substance: 1.2
Yeast gene YJL052W
  The level of expressed mRNA in the presence of chemical substance/The level of expressed mRNA in the absence of chemical substance: 4.3
Yeast gene YJL121C, cells incubated two hours with the chemical substance
  The level of expressed mRNA in the presence of chemical substance/The level of expressed mRNA in the absence of chemical substance: 1.1
